The subject of assay [1] is Renal cell lines. Briefly: Human Tumor Cell Panel Assay in vitro, renal panel. Format: cell-based. Further details: key: Most sensitive cell panes are marked with ✓. From the text:
(§1) The tubulin activities, breast cancer cell line activities, and the cell panels most sensitive to selected analogs are shown in Tables 3 and 4.

The subject of assay [2] is CNS cell lines. Briefly: Human Tumor Cell Panel Assay in vitro, CNS panel. Format: cell-based. Also noted: key: Most sensitive cell panes are marked with ✓.
Excerpt: as §1

Assay [3] has as its system Melanoma cell lines. Nature of the assay: Human Tumor Cell Panel Assay in vitro, melanoma panel. The assay is classed as cell-based. Further details: key: Most sensitive cell panes are marked with ✓.
Excerpt: as §1

Assay [4] concerns Ovarian cell lines (especially OVCAR-3). Nature of the assay: Human Tumor Cell Panel Assay in vitro, ovarian panel. Format: cell-based. Also noted: key: Most sensitive cell panes are marked with ✓.
Excerpt: as §1

The test system of assay [5] is 8 human breast cancer cell lines. Nature of the assay: human tumor cell panel assay in vitro, breast panel. The assay is classed as cell-based. Also noted: key to Most Sensitive Cell Lines in Human Tumor Cell Panel Assay: Breast: Most sensitive cell panes are marked with ✓. The settings on record: for Most Sensitive Cell Lines in Human Tumor Cell Panel Assay: Breast: 8 cell lines, only MCF-7 and T-47D express estrogen and progesterone receptors.
Excerpt: as §1

Assay [6] deals with MDA-MB-435 estrogen receptor-negative human breast carcinoma cells. Briefly: In Vivo Tumor Growth Inhibition. Further details: species or system SCID mice. How it is done: To determine the antitumor activity of 2-ME and derivatives, SCID mice were s.c. inoculated with 10^6 MDA-MB-435 estrogen receptor-negative human breast carcinoma cells. Treatment was initiated on day 12 when tumor volumes reached 75-100 mm3 in volume. Drugs were suspended in 0.5 g/100 ml of carboxymethylcellulose with sterile glass beads, vortexed for 5 minutes, and administered p.o. in a volume of 0.1 ml. Control mice received 0.1 ml of carboxymethylcellulose p.o. Serial caliper measurements of perpendicular diameters were used to calculate tumor volume using the following: (shortest diameter)^2×(longest diameter)×0.52. T/C was calculated as the volume of treated tumors over the volume of control tumors. A smaller number indicates a greater inhibition of tumor growth.

Assay [7] has as its target T1, rat uterine cytosolic estrogen receptor (Rattus norvegicus, UniProt P06211).
T1 construct: from tissue; host or cells: rat uterine cytosol (per the result head)
T1 sequence (P06211 1-600): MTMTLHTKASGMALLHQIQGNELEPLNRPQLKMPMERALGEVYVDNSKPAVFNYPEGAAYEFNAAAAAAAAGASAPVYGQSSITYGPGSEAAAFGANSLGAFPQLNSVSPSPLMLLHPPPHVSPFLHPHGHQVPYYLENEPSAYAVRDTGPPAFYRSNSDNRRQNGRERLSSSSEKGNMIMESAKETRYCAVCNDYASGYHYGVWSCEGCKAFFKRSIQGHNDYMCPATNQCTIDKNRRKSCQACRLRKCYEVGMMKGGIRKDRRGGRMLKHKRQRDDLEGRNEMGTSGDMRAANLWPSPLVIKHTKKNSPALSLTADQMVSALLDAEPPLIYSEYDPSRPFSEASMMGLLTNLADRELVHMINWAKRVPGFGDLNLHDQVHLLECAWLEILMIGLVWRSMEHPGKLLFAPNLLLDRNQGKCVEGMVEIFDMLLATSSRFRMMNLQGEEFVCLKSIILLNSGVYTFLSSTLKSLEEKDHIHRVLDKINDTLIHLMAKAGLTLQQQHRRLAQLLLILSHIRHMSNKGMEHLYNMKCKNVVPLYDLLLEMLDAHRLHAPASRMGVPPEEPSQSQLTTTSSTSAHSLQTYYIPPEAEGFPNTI
Nature of the assay: Relative Binding Affinity to estrogen receptor. To be noted: at 0°; 3H-Estradiol=100.
Excerpt: as §1

Assay [8] concerns tubulin. Nature of the assay: tubulin activities of 2-ME analogs (Table 3). The assay is classed as biochemical.
For assay [9], the system named is corneal neovascularization. Briefly: Mouse Corneal Micropocket Assay. The assay is classed as in vivo, mice. To be noted: 150 mg/kg, daily oral, 5 days. As to the method: Five- to 7-week-old SCID female mice were obtained from Massachusetts General Hospital (Boston, Mass.), Immunocompetent 7-9-week-old female C57BL/6 mice were obtained from ARCH Technical Services, Children's Hospital (Boston, Mass.). All animal studies were conducted according to protocols approved by the Animal Ethics Committee of Children's Hospital. Animals were anesthetized in a methoxyflurane (Pittman-Moore, Mundelein, Ill.) chamber prior to all procedures and were observed until fully recovered. Animals were sacrificed by a lethal dose of methoxyflurane.
Mouse Corneal Micropocket Assay To study the effect of microtubule inhibitors on angiogenesis in vivo, a model of angiogenesis in the mouse cornea was used in […] mice as described previously (Kenyon, B. B., Voest, E. E., Chen, C. C., Folkman, J., and D'Amato, R. J. A model of angiogenesis in the mouse cornea. Invest. Ophthalmol. & Visual Sci., 76: 1625-1632, 1996). In brief, after animals were anesthetized, corneal micropockets were created in both eyes with a modified von Graefe cataract knife. Into each pocket, a 0.4 mm ×0.4 mm×0.2 mm sucrose aluminum sulfate (Bukh Meditee, Copenhagen, Denmark) pellet coated with hydron polymer type NCC (IHN Sciences, New Brunswick, N.J.) containing 80 ng of bFGF or 160 ng of human recombinant […] (gift from Reprogenesis, Cambridge, Mass.) was implanted 1.0-1.2 mm from the limbal vessels (bFGF experiments) or 0.5-0.7 mm from the limbus (VEGF experiments). Erythromycin ointment (E. Fougera, Melville, N.Y.) was applied to each operated eye. The sucralfate acts to stabilize the growth factor and to slow its release from the hydron. Before testing each drug in this assay, we found the maximal dose that could be administered daily for 5 consecutive days without producing signs of toxicity (i.e., no hair loss, diarrhea, infection, lethargy, or weight loss). The treated groups received daily oral administration for 5 consecutive days of the stated dosage of 2-ME or a derivative thereof suspended in 0.5 g/100 ml of carboxymethylcellulose.
Treatment was started on the day of pellet implantation. […] For this purpose, the eyes of the mice were examined by slit-lamp biomicroscopy. Area of corneal neovascularization was calculated using a modified formula for a half-ellipse: Area (mm^2)=[π×clock hours×length (mm)×0.2 mm]. This formula provides the most accurate approximation of the area of neovascularization that grows toward the pellet. (Kenyon, B. B., Voest, E. E., Chen, C. C., Folkman, J., and D'Amato, R. J. A model of angiogenesis in the mouse cornea. Invest. Ophthalmol. & Visual Sci., 76: 1625-1632, 1996).

Assay [10] relates to tubulin. Briefly: inhibition of tubulin polymerization in vitro (turbidity at 350 nm). Format: biochemical. To be noted: read-out: IC50 (concentration required to inhibit tubulin polymerization by 50%); mean ± S.D.; method of Example 1. How it is done: Anti-mitotic activity can be evaluated by testing the ability of an estradiol derivative to inhibit tubulin polymerization and microtubule assembly in vitro. Microtubule assembly is followed in a Gilford recording spectrophotometer (model 250 or 2400S) equipped with electronic temperature controllers. A reaction mixture (all concentrations refer to a final reaction volume of […]) contains 1.0 M monosodium glutamate (ph 6.6), 1. omg/ml (10 μM) tubulin, 1.0 mM MgCl2, 4% (v/v) dimethylsulfoxide and 20-75μM of a composition to be tested. The 0.24 ml reaction mixtures are incubated for 15 min. at 37° C. and then chilled on ice. After addition of 10p1 2.5mM GTP, the reaction mixture is transferred to a cuvette at 0° C., and a baseline established. At time zero, the temperature controller of the spectrophotometer is set at 37° C. Microtubule assembly is evaluated by increased turbity at 350 nm.
A. Each reaction mixture (all concentrations refer to the final reaction volume of 0.25 ml) contained 1.0 M monosodium glutamate (pH 6.6), 1.0 mg/ml (10 μM) tubulin, 1.0 mM MgCl2, 4% (v/v) dimethylsulfoxide, and either 0 (curve 1), 20μM (curve 2), 40 μM (curve 3), or 75 μM (curve 4) 2-methoxyestradiol. The 0.24 ml reaction mixtures were incubated for 15 min. at 37° C and chilled on ice. After addition of 10 μl of 2.5 mM GTP the reaction mixtures were transferred to cuvettes held at 0° C., and baselines were established. At time zero the temperature controller was set at 37° C. At the times indicated by the vertical dashed lines the temperature controller was set at the indicated temperatures.
B. Each reaction mixture contained 0.8 M monosodium glutamate (pH 6.6), 1.2 mg/ml (12 μM) tubulin, 4% (v/v) dimethylsulfoxide, and either 0 (curve 1), 1.0 FM (curve 2), 2.0 ,M (curve 3), 3.0 μM (curve 4), or 4.0 μM (curve 5) 2-methoxyestradiol. The 0.24 ml reaction mixtures were incubated for 15 min. at 26° C. and chilled on ice. After addition of 10μl of 10 mM GTP the reaction mixtures were transferred to cuvettes held at 0° C., and baselines were established. At time zero the temperature controller was set at 26° C. At the time indicated by vertical dashed line the temperature controller was set at 0° C.
The method is given in Example 1.
S.D., standard deviation.

The subject of assay [11] is tubulin. Nature of the assay: inhibition of [3H]colchicine binding to tubulin. The settings on record: 100 μM inhibitor, 1.0 μM tubulin, 2 μM [3H]colchicine, 10 min at 37° C.; ± S.D. How it is done:
Incubation was for 10 min. at 37° C.
Incubation was for 10 mi. at 37° C. Average values obtained in three independent experiments are presented in the table, except for 2-methoxyestrone, which was only examined twice. S.D., standard deviation.

SMILES strings stand for the structures.

As for `CCOc1cc2c(cc1O)C(=NO)CC1C2CCC2(C)C(O)CCC12` (stereo not shown) [NSC 680185], in [1], the “Most Sensitive Cell Lines in Human Tumor Cell Panel Assay: Renal” value was “✓”. The “Most Sensitive Cell Lines in Human Tumor Cell Panel Assay: CNS” value in assay [2] is recorded as “✓”. The “Most Sensitive Cell Lines in Human Tumor Cell Panel Assay: Melanoma” value (shortened to “Most Sensitive Cell Lines … Melanoma”) in assay [3] is “✓”. Also, the “Most Sensitive Cell Lines in Human Tumor Cell Panel Assay: Ovarian” value in [4] is listed as “✓”. Besides, the “Most Sensitive Cell Lines in Human Tumor Cell Panel Assay: Breast” value (“Most Sensitive Cell Lines … Breast” below) in assay [5] was “✓”. In [6] (150 mg/kg p.o., duration not stated), the “T/C (volume of treated tumors over volume of control tumors)” value is 0.9. In addition, in assay [7], the “RBA, Relative Binding Affinity to rat uterine cytosolic estrogen receptor” value (“RBA, Relative Binding Affinity” below) is listed as less than 0.001.
In the case of `CCNc1cc2c(cc1O)CCC1C2CCC2(C)C(O)CCC12` (stereo not shown) [NSC 673652], the IC50 in [8] was roughly 2000 nM; in assay [5] (Homo sapiens, cell panel assay in vitro, two values per cell separated by /, read-out: Tumor Panel: Average log IC50(Molar) against 8 human breast cancer cell lines (converted)) it was 2000 nM. The “Tumor Panel: Average log IC50(Molar) against 8 human breast cancer cell lines” value in assay [5] (cell panel assay in vitro, two values per cell separated by /) is −5.7/−5.7 log Molar. The “RBA, Relative Binding Affinity” value in assay [7] is 0.35.
Turning to `C[C@]12CC[C@@H]3c4cc(OCC(F)(F)F)c(O)cc4/C(=N/O)C[C@H]3[C@@H]1CC[C@@H]2O` [NSC 681683], the “inhibition in corneal pocket assay” value in assay [9] amounted to 22%. Besides, the IC50 in assay [8] came out at 500 nM. The “Most Sensitive Cell Lines in Human Tumor Cell Panel Assay: CNS” value in assay [2] is “✓”. In assay [3], the “Most Sensitive Cell Lines … Melanoma” value is listed as “✓”. Moreover, the “Most Sensitive Cell Lines in Human Tumor Cell Panel Assay: Ovarian” value in assay [4] was “✓”. Also, the “Most Sensitive Cell Lines … Breast” value in [5] was “✓”. The “tumor growth inhibition, comparison in words (FIG. 4)” value in assay [6] (FIG. 4) is recorded as “performed approximately as well as the derivative 681684”. For the same molecule, the “RBA, Relative Binding Affinity” value in [7] is on record as less than 0.0074.
Consider `CCOc1cc2c(cc1O)C(=NOC)CC1C2CCC2(C)C(O)CCC12` (stereo not shown) [NSC 683125], for which the “inhibition in corneal pocket assay” value in assay [9] was determined as 23%. Besides, in [1], the “Most Sensitive Cell Lines in Human Tumor Cell Panel Assay: Renal” value was “✓”. For the same molecule, the “Most Sensitive Cell Lines … Melanoma” value in assay [3] is on record as “✓”. For the same molecule, the “Most Sensitive Cell Lines … Breast” value in [5] was “✓”. In addition, the “RBA, Relative Binding Affinity” value in [7] was less than 0.001.
Take `C#CC1(O)CCC2C3CCc4cc(O)ccc4C3CCC21C` (stereo not shown) [17-Ethynylestradiol, reference compound]: the IC50 in assay [10] stood at 10000 ± 2000 nM. Besides, the “Percentage Inhibition of colchicine binding to tubulin” value in assay [11] was 50 ± 7%.
The corresponding values for `COc1cc2c(cc1O)CCC1C2CCC2(C)C(=O)CCC12` (stereo not shown) [2-Methoxyestrone, reference compound] are 8800 ± 1000 nM and 57 ± 6%.
